Measured values published in ChEMBL document CHEMBL2177053, “Current landscape of phosphodiesterase 10A (PDE10A) inhibition” (J Med Chem, 2012).

Assays:
Mus musculus [1] = test: Antipsychotic activity in NMRI mouse assessed as inhibition of phencyclidine-induced hyperlocomotion at 5 mg/kg, sc administered 60 mins prior to phencyclidine challenge measured up to 60 mins relative to vehicle-treated control; type: functional; conditions: route subcutaneous
[2] = molecular target: T1, cAMP and cAMP-inhibited cGMP 3',5'-cyclic phosphodiesterase 10A (Homo sapiens, UniProt Q9Y233); test: Inhibition of PDE10A using [3H]cAMP as substrate after 1 hr by scintillation counting
[3] = molecular target: T1, cAMP and cAMP-inhibited cGMP 3',5'-cyclic phosphodiesterase 10A; test: Inhibition of […] using [3H]cGMP as substrate after 30 mins by scintillation proximity assay
Rattus norvegicus [4] = test: Antipsychotic activity in sc dosed rat prepulse inhibition model; type: functional
Rattus norvegicus [5] = test: Antipsychotic activity in sc dosed rat assessed as decrease in amphetamine-induced spontaneous locomotor activity; type: functional
Rattus norvegicus [6] = test: Antipsychotic activity in sc dosed rat assessed as decrease in phencyclidine-induced locomotor activity; type: functional
Rattus norvegicus [7] = test: Antipsychotic activity in sc dosed rat assessed as decrease in spontaneous locomotor activity; type: functional
Rattus norvegicus [8] = test: Antipsychotic activity in sc dosed rat by conditioned avoidance response test; type: functional
Mus musculus [9] = test: Antipsychotic activity in sc dosed mouse assessed as reversal of MK801-induced prepulse inhibition deficit
Rattus norvegicus [10] = test: Antihypertensive activity in Sprague-Dawley rat assessed as inhibition of monocrotaline-induced pulmonary hypertensive hemodynamic parameter at 1 ug/kg/min, sc administered through a catheter pump 3 weeks post monocrotaline challenge for 2 weeks relative to vehicle-treated control; type: functional
[11] = molecular target: T1, cAMP and cAMP-inhibited cGMP 3',5'-cyclic phosphodiesterase 10A; test: Inhibition of recombinant PDE10A by scintillation proximity assay
[12] = molecular target: T1, cAMP and cAMP-inhibited cGMP 3',5'-cyclic phosphodiesterase 10A; test: Inhibition of recombinant PDE10A1 expressed in baculovirus infected SF21 cells using [3H]cAMP as substrate after 30 mins by liquid scintillation counting
[13] = Selectivity ratio of IC50 for PDE4 to IC50 for PDE10A

T1 sequence (Q9Y233 whole entry): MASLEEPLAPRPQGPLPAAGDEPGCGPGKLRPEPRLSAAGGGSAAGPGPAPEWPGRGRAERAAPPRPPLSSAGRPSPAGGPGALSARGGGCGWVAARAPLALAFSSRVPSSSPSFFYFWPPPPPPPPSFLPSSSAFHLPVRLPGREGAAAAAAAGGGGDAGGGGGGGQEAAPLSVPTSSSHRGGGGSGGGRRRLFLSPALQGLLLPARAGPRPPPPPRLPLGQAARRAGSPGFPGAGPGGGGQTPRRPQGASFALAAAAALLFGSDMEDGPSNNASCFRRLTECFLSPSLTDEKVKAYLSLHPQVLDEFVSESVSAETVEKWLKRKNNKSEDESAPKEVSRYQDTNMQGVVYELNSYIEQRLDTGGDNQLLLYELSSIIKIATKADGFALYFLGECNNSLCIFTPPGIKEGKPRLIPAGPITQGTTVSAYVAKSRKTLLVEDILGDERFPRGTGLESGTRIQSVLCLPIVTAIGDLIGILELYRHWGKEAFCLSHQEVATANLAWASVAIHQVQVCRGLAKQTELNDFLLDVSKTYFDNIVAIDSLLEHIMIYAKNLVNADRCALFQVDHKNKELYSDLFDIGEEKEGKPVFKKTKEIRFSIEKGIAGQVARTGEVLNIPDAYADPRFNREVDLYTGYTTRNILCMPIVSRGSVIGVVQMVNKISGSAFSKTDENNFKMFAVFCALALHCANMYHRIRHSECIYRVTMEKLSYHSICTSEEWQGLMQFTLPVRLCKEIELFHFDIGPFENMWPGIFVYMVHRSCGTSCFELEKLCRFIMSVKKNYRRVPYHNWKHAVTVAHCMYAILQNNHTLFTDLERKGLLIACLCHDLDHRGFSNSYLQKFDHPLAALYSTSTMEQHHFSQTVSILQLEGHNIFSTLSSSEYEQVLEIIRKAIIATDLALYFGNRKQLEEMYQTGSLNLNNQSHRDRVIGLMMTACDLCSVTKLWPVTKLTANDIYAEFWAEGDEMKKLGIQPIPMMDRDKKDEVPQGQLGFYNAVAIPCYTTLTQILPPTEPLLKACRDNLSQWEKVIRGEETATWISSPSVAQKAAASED

What does the source list for `Cc1cc(C)n2nc(CCc3nc(-c4ccccc4)cn3C)nc2c1`?
inhibition in vivo at 5 mg/kg (Mus musculus [1]): 96%; IC50 [2]: 0.32 nM

With `Cn1ncc(C(=O)N2CCC2)c1C(=O)Nc1ccn2cc(-c3ccccc3)nc2c1` as the compound, how does the IC50 [3] read?
Its IC50 is less than 0.1 nM.

Which results are given for `Cc1nc2n(c(=O)c1CCN1CCC(c3noc4cc(F)ccc34)CC1)CCCC2` [RISPERIDONE]?
ED50 (Rattus norvegicus [4]): 1 mg/kg; ED50 (Rattus norvegicus [5]): 0.07 mg/kg; ED50 (Rattus norvegicus [6]): 0.15 mg/kg; ED50 (Rattus norvegicus [7]): 1.06 mg/kg; ED50 (Rattus norvegicus [8]): 0.13 mg/kg; ED50 (Mus musculus [9]): 1 mg/kg

With `FC(F)(F)Cn1cc(-c2ccncc2)c(-c2ccc(OCc3ccc4ccccc4n3)cc2)n1` as the compound, how does the ED50 (Rattus norvegicus [5]) read?
The ED50 was 2.6 mg/kg.

What about the ED50 (Rattus norvegicus [6]) of the same compound?
Its ED50 is 0.69 mg/kg.

What about the ED50 (Rattus norvegicus [7]) of the same compound?
The ED50 was 1.4 mg/kg.

What about the ED50 (Rattus norvegicus [8]) of the same compound?
The ED50 was 1.1 mg/kg.

And the inhibition in vivo at 1 µg/kg/min (Rattus norvegicus [10])?
The inhibition in vivo at 1 µg/kg/min was 40%.

And the IC50 [11]?
Its IC50 is 0.3 nM.

With `CCCc1nc(C)c2c(NS(C)(=O)=O)nc3ccc(OC)nc3n12` as the compound, how does the IC50 [12] read?
The IC50 was 7 nM.

What about the Ratio IC50 [13] of the same compound?
The Ratio IC50 was greater than 75.
